Experimental findings from PMC10531337 (International Journal of Molecular Sciences, 2023) are described below.

The assay has as its target T1, epidermal growth factor receptor (EGFR) (Homo sapiens, UniProt P00533).
T1 construct: extracellular domain
The assay can be described thus: SPR (Biacore S200, EGFR amine-coupled to CM5 chip, […] model); also BLI (Octet RED96) at […]. The class given is binding.

T1 sequence (P00533 25-645 limits assumed): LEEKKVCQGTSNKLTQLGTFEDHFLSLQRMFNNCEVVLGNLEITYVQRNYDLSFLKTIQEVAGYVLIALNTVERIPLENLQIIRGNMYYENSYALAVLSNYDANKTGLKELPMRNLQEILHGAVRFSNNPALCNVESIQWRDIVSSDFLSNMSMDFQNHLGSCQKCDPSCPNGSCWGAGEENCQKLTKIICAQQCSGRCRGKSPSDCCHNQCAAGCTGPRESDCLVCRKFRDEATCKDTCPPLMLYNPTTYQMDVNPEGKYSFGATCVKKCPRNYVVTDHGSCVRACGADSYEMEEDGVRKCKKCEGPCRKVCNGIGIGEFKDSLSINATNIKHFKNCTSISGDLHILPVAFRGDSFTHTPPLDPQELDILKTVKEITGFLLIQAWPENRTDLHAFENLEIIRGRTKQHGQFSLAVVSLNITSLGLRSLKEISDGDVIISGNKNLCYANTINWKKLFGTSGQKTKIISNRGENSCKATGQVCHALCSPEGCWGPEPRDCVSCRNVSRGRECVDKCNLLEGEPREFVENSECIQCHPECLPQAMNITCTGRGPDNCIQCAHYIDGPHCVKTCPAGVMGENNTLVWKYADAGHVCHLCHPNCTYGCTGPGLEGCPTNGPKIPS

As a reminder, the Kd is the equilibrium constant for the complex coming apart. Higher therefore signals weaker binding. For `O=C(O[C@@H]1Cc2c(O)cc(O)cc2O[C@@H]1c1cc(O)c(O)c(O)c1-c1c([C@H]2Oc3cc(O)cc(O)c3C[C@H]2OC(=O)c2cc(O)c(O)c(O)c2)cc(O)c(O)c1O)c1cc(O)c(O)c(O)c1` [compound 3, theasinensin A], binding was put at a Kd of 7.14 µM.
